According to PubChem BioAssay AID214 (DTP/NCI, 2004):
“And” between values parts separate entries of the source, which are not always exact repeats. Equal entries are not always repeated. Results filed as inconclusive are left out.

System: B6C3F1 mice, colon carcinoma 38 s.c., T/C
Test: NCI In Vivo Anticancer Drug Screen. Data for tumor model Colon Carcinoma 38 (subcutaneous) in B6C3F1 mice
Details: higher = larger tumour
Procedure: The antitumor activity of compounds was measured in mice bearing transplantable tumors. Survival or tumor size were measured and the results are expressed as the measurement made in the treated group (T) divided by the measurement made in the vehicle treated control group (C). The tumor model used in this assay is Colon Carcinoma 38 (subcutaneous) in B6C3F1 mice

[1] = endpoint: median tumor weight (est.), dose: 100.0 mg/kg/injection, schedule: Q07DX002 (ip), vehicle: saline
[2] = endpoint: median tumor weight (est.), dose: 25.0 mg/kg/injection, schedule: Q07DX002 (ip), vehicle: saline with Tween-80
[3] = endpoint: median tumor weight (est.), dose: 50.0 mg/kg/injection, schedule: Q07DX002 (ip), vehicle: saline with Tween-80
[4] = endpoint: median tumor weight (est.), dose: 100.0 mg/kg/injection, schedule: Q07DX002 (ip), vehicle: saline with Tween-80

Question: With `CSc1ncnc2c1ncn2C1OC(CO)C(O)C1O` (stereo unspecified) as the molecule, how does the T/C (endpoint: median tumor weight (est.), dose: 25.0 mg/kg/injection, schedule: Q07DX002 (ip), vehicle: saline + alcohol) read?
Answer: The T/C was 98 % of control.

Question: And the T/C (endpoint: median tumor weight (est.), dose: 50.0 mg/kg/injection, schedule: Q07DX002 (ip), vehicle: saline + alcohol)?
Answer: Its T/C is 51 % of control.

Question: What about the T/C (endpoint: median tumor weight (est.), dose: 100.0 mg/kg/injection, schedule: Q07DX002 (ip), vehicle: saline + alcohol) of the same molecule?
Answer: The T/C was 49 % of control.

Question: And the T/C (endpoint: median tumor weight (est.), dose: 200.0 mg/kg/injection, schedule: Q07DX002 (ip), vehicle: saline + alcohol)?
Answer: Its T/C is 32 % of control.

Question: With `NC(CCl)=NCC12CC3CC(CC(C3)C1)C2` as the molecule, how does the T/C (endpoint: median tumor weight (est.), dose: 12.5 mg/kg/injection, schedule: Q07DX002 (ip), vehicle: Klucel (hydroxypropylcellulose) (HPC)) read?
Answer: The T/C was 110 % of control.

Question: What about the T/C (endpoint: median tumor weight (est.), dose: 100.0 mg/kg/injection, schedule: Q07DX002 (ip), vehicle: Klucel (hydroxypropylcellulose) (HPC)) of the same molecule?
Answer: Its T/C is 94 % of control and 108 % of control.

Question: Which T/C [1] does the source give for `COc1cccc(-c2cc(=O)c3cccc(CC(=O)O)c3o2)c1` here?
Answer: The T/C was 3 % of control.

Question: What does the source list for `CCCCCCCCCCCCCCCCCCOCC(COP(=O)([O-])OCC[N+](C)(C)C)OC` (stereo unspecified)?
Answer: T/C (endpoint: median tumor weight (est.), dose: 12.5 mg/kg/injection, schedule: Q07DX002 (ip), vehicle: saline): 122 % of control; T/C (endpoint: median tumor weight (est.), dose: 25.0 mg/kg/injection, schedule: Q07DX002 (ip), vehicle: saline): 119 % of control; T/C (endpoint: median tumor weight (est.), dose: 50.0 mg/kg/injection, schedule: Q07DX002 (ip), vehicle: saline): 89 % of control; T/C [1]: 73 % of control

Question: How did the T/C (endpoint: median tumor weight (est.), dose: 3.12 mg/kg/injection, schedule: Q07DX002 (ip), vehicle: distilled water + Tween-80 + alcohol) turn out when `Cc1cc(NCCCCCCCCNc2cc(C)nc3cc(N(C)C)ccc23)c2ccc(N(C)C)cc2n1` was run?
Answer: Its T/C is 105 % of control.

Question: And the T/C (endpoint: median tumor weight (est.), dose: 6.25 mg/kg/injection, schedule: Q07DX002 (ip), vehicle: distilled water + Tween-80 + alcohol)?
Answer: The T/C was 78 % of control.

Question: And the T/C (endpoint: median tumor weight (est.), dose: 12.5 mg/kg/injection, schedule: Q07DX002 (ip), vehicle: distilled water + Tween-80 + alcohol)?
Answer: Its T/C is 69 % of control.

Question: What about the T/C (endpoint: median tumor weight (est.), dose: 25.0 mg/kg/injection, schedule: Q07DX002 (ip), vehicle: distilled water + Tween-80 + alcohol) of the same molecule?
Answer: Its T/C is 160 % of control.

Question: `O=[N+]([O-])c1ccc(N(CCO)CCO)c2c1no[n+]2[O-]` was tested. Which T/C [2] did it give?
Answer: Its T/C is 85 % of control.

Question: And the T/C [3]?
Answer: Its T/C is 63 % of control.

Question: Which T/C (endpoint: median tumor weight (est.), dose: 16.0 mg/kg/injection, schedule: Q07DX002 (ip), vehicle: saline) does the source give for `Cc1c(N)nc([C@H](CC(N)=O)NC[C@H](N)C(N)=O)nc1C(=O)N[C@H](C(=O)N[C@H](C)[C@@H](O)[C@H](C)C(=O)N[C@H](C(=O)NCCc1nc(-c2nc(C(=O)NCCC[S+](C)C)cs2)cs1)[C@@H](C)O)C(OC1OC(CO)C(O)C(O)C1OC1OC(CO)C(O)C(OC(N)=O)C1O)c1cnc[nH]1` (stereo partly specified) here?
Answer: The T/C was 26 % of control.

Question: What about the T/C (endpoint: median tumor weight (est.), dose: 32.0 mg/kg/injection, schedule: Q07DX002 (ip), vehicle: saline) of the same molecule?
Answer: The T/C was 14 % of control.

Question: What about the T/C (endpoint: median tumor weight (est.), dose: 64.0 mg/kg/injection, schedule: Q07DX002 (ip), vehicle: saline) of the same molecule?
Answer: The T/C was 35 % of control.

Question: What about the T/C (endpoint: median tumor weight (est.), dose: 128.0 mg/kg/injection, schedule: Q07DX002 (ip), vehicle: saline) of the same molecule?
Answer: The T/C was 9 % of control.

Question: What does the source list for `O=C(CCCN1CCC(C(O)c2ccc(F)cc2)CC1)c1ccc(F)cc1` (stereo unspecified)?
Answer: T/C (endpoint: median tumor weight (est.), dose: 12.5 mg/kg/injection, schedule: Q07DX002 (ip), vehicle: saline with Tween-80): 59 % of control; T/C [2]: 49 % of control; T/C [3]: 92 % of control; T/C [4]: 67 % of control

Question: What does the source list for `O=c1[nH]cc(F)c(=O)[nH]1`?
Answer: T/C (endpoint: median tumor weight (est.), dose: 8.75 mg/kg/injection, schedule: Q07DX002 (ip), vehicle: saline): 59 % of control; T/C (endpoint: median tumor weight (est.), dose: 24.0 mg/kg/injection, schedule: Q01DX006 (ip), vehicle: saline): 9 % of control; T/C (endpoint: median tumor weight (est.), dose: 36.0 mg/kg/injection, schedule: Q01DX006 (ip), vehicle: saline): 7 % of control; T/C (endpoint: optimum tumor weight change, dose: 35.0 mg/kg/injection, schedule: Q07DX002 (ip), vehicle: saline): 48 % of control; T/C (endpoint: optimum tumor weight change, dose: 70.0 mg/kg/injection, schedule: Q07DX002 (ip), vehicle: saline): 46 % of control; T/C (endpoint: optimum tumor weight change, dose: 140.0 mg/kg/injection, schedule: Q07DX002 (ip), vehicle: saline): 45 % of control

Question: Which results are given for `COc1ccc2cc1Oc1ccc(cc1)C[C@H]1c3cc(c(OC)cc3CCN1C)Oc1c(OC)c(OC)cc3c1[C@H](C2)N(C)CC3`?
Answer: T/C (endpoint: median tumor weight (est.), dose: 150.0 mg/kg/injection, schedule: Q07DX002 (ip), vehicle: saline with Tween-80): 102 % of control and 106 % of control; T/C (endpoint: median tumor weight (est.), dose: 300.0 mg/kg/injection, schedule: Q07DX002 (ip), vehicle: saline with Tween-80): 57 % of control; T/C (endpoint: median tumor weight (est.), dose: 600.0 mg/kg/injection, schedule: Q07DX002 (ip), vehicle: saline with Tween-80): 29 % of control

Question: How did the T/C (endpoint: median tumor weight (est.), dose: 50.0 mg/kg/injection, schedule: Q07DX002 (ip), vehicle: suspension in saline) turn out when `CCC(C(=O)O)C(=O)O.[NH2-].[NH2-].[Pt+2]` was run?
Answer: Its T/C is 61 % of control.

Question: And the T/C (endpoint: median tumor weight (est.), dose: 100.0 mg/kg/injection, schedule: Q07DX002 (ip), vehicle: suspension in saline)?
Answer: Its T/C is 45 % of control.

Question: What about the T/C (endpoint: median tumor weight (est.), dose: 200.0 mg/kg/injection, schedule: Q07DX002 (ip), vehicle: saline) of the same molecule?
Answer: The T/C was 62 % of control.

Question: Which T/C (endpoint: median tumor weight (est.), dose: 25.0 mg/kg/injection, schedule: Q07DX002 (ip), vehicle: water) does the source give for `COc1ccc(OC)c(Cc2cnc3nc(N)nc(N)c3c2C)c1` here?
Answer: The T/C was 72 % of control.

Question: What about the T/C (endpoint: median tumor weight (est.), dose: 50.0 mg/kg/injection, schedule: Q07DX002 (ip), vehicle: water) of the same molecule?
Answer: The T/C was 104 % of control.

Question: What does the source list for `[Cl][Hg][Cl]`?
Answer: T/C (endpoint: median tumor weight (est.), dose: 1.56 mg/kg/injection, schedule: Q07DX002 (ip), vehicle: saline): 80 % of control; T/C (endpoint: median tumor weight (est.), dose: 3.12 mg/kg/injection, schedule: Q07DX002 (ip), vehicle: saline): 124 % of control

Question: `O=C1SC(c2ccccc2)=S=C1c1ccccc1` was tested. Which T/C [3] did it give?
Answer: The T/C was 152 % of control.

Question: What about the T/C [4] of the same molecule?
Answer: Its T/C is 114 % of control.

Question: And the T/C (endpoint: median tumor weight (est.), dose: 200.0 mg/kg/injection, schedule: Q07DX002 (ip), vehicle: saline with Tween-80)?
Answer: Its T/C is 104 % of control.

Question: What about the T/C (endpoint: median tumor weight (est.), dose: 400.0 mg/kg/injection, schedule: Q07DX002 (ip), vehicle: saline with Tween-80) of the same molecule?
Answer: The T/C was 120 % of control.

Question: What about the T/C (endpoint: median tumor weight (est.), dose: 800.0 mg/kg/injection, schedule: Q07DX002 (ip), vehicle: saline with Tween-80) of the same molecule?
Answer: The T/C was 104 % of control.
